From EP0979653A1, “REMEDY FOR CHRONIC FATIGUE SYNDROME” (KANEBO, LTD., priority 1996, dated 1998)
Where a name gives a salt, the structure may show the parent alone.

Experiments:
[1] = Measurement of DHAS concentration in plasma of patients with CFS given the injection intravenously; format: in vivo; conditions: human, iv, 100 mg, 100 mg intravenously daily for 14 days; for concentration at 13 h: 13 hours after administration; for concentration at 48 h / concentration at 72 h / concentration at 120 h / concentration at 192 h / concentration at 264 h / concentration at 336 h: before administration; for concentration at 72 h: 3 days; for concentration at 120 h: 5 days; for concentration at 192 h: 8 days; for concentration at 264 h: 11 days; for concentration at 336 h: 14 days
Method: (§1) An injection containing 100 mg of a test compound was intravenously administered to two patients with CFS (A, B), continuously, for 14 days. The measurement of DHAS concentration in plasma was conducted before administration and 13 hours after administration with respect to the first and second days, while the measurement was conducted before administration with regard to the third, fifth, eighth, eleventh and fourteenth days. On the fourteenth day from the day on which first administration was conducted, the patients were questioned about lassitude, weakness and psychoneurotic symptom.

^51Cr-labelled K562 = test: Natural killer (NK) activity of patient B, cytotoxic activity against 51Cr-labelled target cells; format: in vivo, human
Method: as §1
With regard to the patient B, a natural killer (NK) activity was measured after administration on the first day and before administration on the fifteenth day. The measurement of the NK activity was conducted in accordance with the method described in Later Biological Experimental Course, No. 5, Process for Study of Immunobiochemistry (Incorporation of The Japanese Biochemistry Society ed., published by Tokyo Kagaku Dojin Co.), page 186. That is, the NK activity was measured by using, as an indication, a cytotoxic activity determined by using ^51Cr-labelled K562 as a target cell. Incidentally, a ratio of effector cell to target cell (E/T ratio) was set at 10:1 or 20:1.

patients with CFS = test: Questioning of patients with CFS about lassitude, weakness and psychoneurotic symptom; format: in vivo, human; conditions: 100 mg intravenously daily for 14 days
Method: as §1

C[C@]12CC[C@H](OS(=O)(=O)O)CC1=CC[C@@H]1[C@@H]2CC[C@]2(C)C(=O)CC[C@@H]12 [Sodium salt of DHAS, dehydroepiandrosterone sulfate]
concentration at 13 h ([1]; patient A, 1 day): 6.36 µg/mL | concentration at 13 h ([1]; patient A, 2 days): 6.34 µg/mL | concentration at 48 h ([1]; patient A, 2 days): 2.46 µg/mL | concentration at 72 h ([1]; patient A): 2.46 µg/mL | concentration at 120 h ([1]; patient A): 2.16 µg/mL | concentration at 192 h ([1]; patient A): 2.15 µg/mL | concentration at 264 h ([1]; patient A): 2.11 µg/mL | concentration at 336 h ([1]; patient A): 3 µg/mL | concentration at 13 h ([1]; patient B, 1 day): 8.9 µg/mL | concentration at 13 h ([1]; patient B, 2 days): 7.65 µg/mL | concentration at 48 h ([1]; patient B, 2 days): 2.68 µg/mL | concentration at 72 h ([1]; patient B): 2.83 µg/mL | concentration at 120 h ([1]; patient B): 4.14 µg/mL | concentration at 192 h ([1]; patient B): 2.05 µg/mL | concentration at 264 h ([1]; patient B): 2.48 µg/mL | concentration at 336 h ([1]; patient B): 2.8 µg/mL | NK activity (%) (^51Cr-labelled K562; E/T ratio 10:1, after administration on the fourteenth day (before administration on the first day: 7.2)): 12.1% | NK activity (%) (^51Cr-labelled K562; E/T ratio 20:1, after administration on the fourteenth day (before administration on the first day: 13.7)): 18.5% | Degree of improvement on the fourteenth day Lassitude (patients with CFS; patient A): improved | Degree of improvement on the fourteenth day Psychoneurotic symptom (patients with CFS; patient A): Improved | Degree of improvement on the fourteenth day Weakness (patients with CFS; patient A): Improved | Degree of improvement on the fourteenth day Lassitude (patients with CFS; patient B): improved | Degree of improvement on the fourteenth day Psychoneurotic symptom (patients with CFS; patient B): Improved | Degree of improvement on the fourteenth day Weakness (patients with CFS; patient B): Improved
